The text below walks through data of patent US9512140B2, “(Thieno[2,3-b][1,5]benzoxazepin-4-yl)piperazin-1-yl compounds as dual activity H1 inverse agonists/5-HT2A antagonists” (priority 2011, dated 2016).

Where a name gives a salt, the structure may show the parent alone. Bounds are passed on as bounds.

As a reminder, the IC50 is the concentration that inhibits the measured activity by half. A word on the EC50: it is the midpoint of the concentration-response curve. Higher therefore signals a need for much substance.

In one data set the test system is native GABAA receptors. The data set can be described thus: GABAA antagonism using native receptors in primary neuronal cultures (FLIPR). Format: cell-based. The settings on record: against GABA at 10 μM, rat cortical embryonic neurons. The procedure: Activity of compounds on native GABAA receptors is evaluated by monitoring calcium fluxes using a 96 well format FLIPR® system (Fluorometric Imaging Plate Reader (FLIPR®, Molecular Devices). Briefly, cortical embryonic neurons are dissociated from E18 rat embryos and plated at optimum density into black-walled, transparent bottom poly-D-lysine coated 96-well FLIPR® plates. After loading the cells with a calcium sensitive dye (Fluo4-AM, Molecular Devices), the cells are bathed in a solution containing low chloride (chloride replaced by gluconate). Under these conditions activation of GABAA receptors causes an efflux of chloride ions (in the direction of the chemical gradient), which results in membrane depolarization and consequently activation of voltage gated calcium channels (VGCCs). Calcium influx through VGCCs is recorded and analysed offline using the FLIPR® system. For a pharmacological validation of the assay, concentration response curves (CRC) are recorded for the standard agonist (GABA) and standard antagonist (Gabazine). […]
The antagonist effects of compounds are quantified using 10-point dose response curves by comparing the peak fluorescent responses to the agonist GABA in the presence and absence of compound. […] Antagonist effects are calculated as a percent of the assay window. […]

Another data set concerns the target 5-HT2B (Homo sapiens, UniProt P41595). Put plainly: 5-HT2B agonist functional activity. Format: biochemical. The source says:
Further, the compounds of the invention may be tested in binding assays and functional activity assays by well known methods for other physiologically important receptors such as, but not limited to, the hERO channel, other serotonin receptors (specifically 5-HT1B, 5-HT1D, receptors, lack of agonist activity at 5-HT2B receptors, 5-HT2C, 5-HT5, 5-HT6, and 5-HT7 receptors), dopaminergic receptors (specifically D1, D2, and D3), GABAA receptors, adrenergic receptors and monoamine transporters.

Data set [1] has as its system Rats. The data set can be described thus: Rat sleep studies, coadministration with citalopram. The data set is classed as in vivo. The settings on record: coadministered with citalopram.
For data set [2], the system named is Rats. Put plainly: Sleep and behavioral monitoring in rats (EEG, EMG, motion). Format: in vivo. The procedure:
The compound of the present invention is tested in rats for its ability to increase the amount of sleep or decrease sleep interruption or both without undesired effects such as inhibition of REM sleep, waking motor impairment, and/or rebound insomnia. Test animals are continuously monitored by electro-encephalograms (EEG), electromyograms (EMG), and motion to measure cumulative nonREM sleep, cumulative total sleep, average sleep bout duration, longest sleep bout duration, rebound insomnia. REM sleep inhibition and locomotor activity intensity during wakefulness. Methods for such studies are known in the art (see for example methods described in Edgar D M, Seidel W F. Modafinil induces wakefulness without intensifying motor activity or subsequent rebound hypersomnolence in the rat. J Pharmacology & Experimental Therapeutics 1997; 283: 757-769; van Gelder R N, Edgar D M, Dement W C. Real-time automated sleep scoring: validation of a microcomputer-based system for mice. Sleep 1991, 14: 48-55; and Gross B A, Walsh C M, Turakhia A A, Booth V, Mashour G A, Poe G R. Open-source logic-based automated sleep scoring software using electrophysiological recordings in rats. J Neurosci Methods. 2009; 184(1):10-8.) Studies are conducted as follows:
Adult, male Wistar rats (approximately 270-300 g at time of surgery) are surgically fitted for chronic recording of EEG, EMG, and motion as follows: Rats are surgically prepared with a cranial implant consisting of four stainless steel screws for EEG recording (two frontal [3.9 mm anterior from bregma, and ±2.0 mm mediolaterally] and two occipital [6.4 mm posterior from bregma, ±5.5 mm mediolaterally]), and with two Teflon-coated stainless steel wires for EMG recording (positioned under the nuchal trapezoid muscles). All leads are soldered to a miniature connector (Microtech, Boothwyn, Pa.) prior to surgery. The implant assembly is affixed to the skull by the combination of the stainless steel EEG recording screws, cyanoacrylate applied between the implant connector and skull, and dental acrylic. Locomotor activity is monitored via a miniature transmitter (Minimitter PDT4000G, Philips Respironics, Bend, Oreg.) surgically placed into the abdomen. At least 3 weeks are allowed for recovery.
Each rat is housed individually within a microisolator cage modified with an inserted polycarbonate filter-top riser to allow more vertical headroom. A flexible cable that minimally restricts movement is connected at one end to a commutator afixed to the cage top and at the other end to the animal's cranial implant. Each cage is located within separate, ventilated compartments of a stainless steel sleep-wake recording chamber. Food and water are available ad libitum and the ambient temperature is maintained at about 23±1° C. A 24-hr light-dark cycle (LD 12:12) using fluorescent light is maintained throughout the study. Relative humidity averages approximately 50%. Animals are undisturbed for at least 30 hrs before and after each treatment.
The vehicle (placebo, methylcellulose 15 centipoise 0.25% in water) or one of the test compound dose levels is administered orally at 1 mL/kg pseudo-randomly such that no rat receives the same treatment twice, and no rat receives more than two of the 8 treatments in any one study. Each rat is removed from its cage for about a minute to be weighed and treated. At least 6 days “washout” period precede and follow each treatment. […]

[3] abbreviates: threshold efficacy dose, 4 parameter logistic regression, 6 hr. after treatment, rat PO.

5-HT2B, sequence (P41595 whole entry, species assumed): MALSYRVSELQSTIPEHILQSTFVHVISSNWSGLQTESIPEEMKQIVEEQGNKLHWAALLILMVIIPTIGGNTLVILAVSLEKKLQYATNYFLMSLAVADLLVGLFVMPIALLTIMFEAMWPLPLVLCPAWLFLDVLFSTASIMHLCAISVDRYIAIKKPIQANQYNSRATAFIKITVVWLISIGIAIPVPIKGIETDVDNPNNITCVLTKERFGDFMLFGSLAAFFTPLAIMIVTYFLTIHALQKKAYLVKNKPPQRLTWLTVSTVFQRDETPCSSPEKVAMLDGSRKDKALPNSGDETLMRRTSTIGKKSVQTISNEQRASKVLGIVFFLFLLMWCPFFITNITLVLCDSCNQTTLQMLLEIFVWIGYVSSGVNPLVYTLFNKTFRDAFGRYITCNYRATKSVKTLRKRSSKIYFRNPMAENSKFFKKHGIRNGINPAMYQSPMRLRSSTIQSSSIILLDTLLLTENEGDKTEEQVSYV

As for `Cc1ccc2c(c1)Oc1sc(C)cc1C(N1CCN(CC(C)(C)C(=O)O)CC1)=N2` [Example 2, 3-[4-(2,8-Dimethylthieno[2,3-b][1,5]benzoxazepin-4-yl)piperazin-1-yl]-2,2-dimethyl-propanoic acid dihydrochloride], the IC50 in the data set on native GABAA receptors is 98 µM. Further, the EC50 on 5-HT2B was > 10 µM. Moreover, the “NREM sleep on coadministration with citalopram” value with Rats [1] is reported as “significantly increase NREM sleep at significantly lower doses”. Besides, the “apparent REM sleep inhibition, statistical significance” value with Rats [2] (0.25 mg/kg and 0.025 mg/kg, rat) was “not statistically significant”. In the data set on Rats [2] (3 mg/kg, rat), the “REM sleep inhibition against the threshold value (−10 min.)” value is “exceeded the threshold value”, the “cumulative NREM sleep time (in words)” value is “significantly increase”, the “cumulative total sleep time (in words)” value is “significantly increase” and the “inhibition of locomotor intensity (LMI) (in words)” value is reported as “without significant”. In addition, the “rebound insomnia (in words)” value in the data set on Rats [2] (3 mg/kg, rat) is reported as “without significant rebound insomnia”. For the same compound, in the data set on Rats [2] (rat sleep study), the “REM sleep inhibition (overall conclusion, in words)” value is “cannot be ruled out”. Further, the “rebound insomnia or reduction in LMI within 10 times the most conservative efficacy dose” value in the data set on Rats [2] (rat, efficacy dose 0.26 mg/kg) is “no undesired occurences of REM rebound insomnia, or reduction in LMI are observed”. In the data set on Rats [2] (setting [3]), the “Estimated efficacy dose, NREM accumulation = 30 min.” value is 0.05 mg/kg; the “Estimated efficacy dose, average sleep bout (1.5-fold increase)” value was 0.21 mg/kg; the “Estimated efficacy dose, longest sleep bout (1.75-fold increase)” value is recorded as 0.26 mg/kg; the “Estimated efficacy dose, total sleep accumulation = 25 min.” value was 0.07 mg/kg.
